From ChEMBL document CHEMBL4387768, “New dual ligands for the D2 and 5-HT1A receptors from the group of 1,8-naphthyl derivatives of LCAP” (Bioorg Med Chem Lett, 2019)

Legend:
Assay type in all cases: cell-based
[1] = target: 5-hydroxytryptamine receptor 7 (Homo sapiens, UniProt P34969); experiment: Displacement of [3H]-5-CT from recombinant human 5HT7B receptor expressed in HEK293 cells measured after 1 hr by microbeta counting method
D(2) dopamine receptor = D(2) dopamine receptor (Homo sapiens, UniProt P14416); experiment: Displacement of [3H]-raclopride from recombinant human D2L receptor expressed in HEK293 cells measured after 1 hr by microbeta counting method
[2] = target: 5-hydroxytryptamine receptor 6 (Homo sapiens, UniProt P50406); experiment: Displacement of [3H]-LSD from recombinant human 5HT6 receptor expressed in HEK293 cells measured after 1 hr by microbeta counting method
[3] = target: T1, 5-hydroxytryptamine receptor 1A (Homo sapiens, UniProt P08908); experiment: Displacement of [3H]-8-OHDPAT from recombinant human 5HT1A receptor expressed in HEK293 cells measured after 1 hr by microbeta counting method
T1 sequence (P08908 whole entry): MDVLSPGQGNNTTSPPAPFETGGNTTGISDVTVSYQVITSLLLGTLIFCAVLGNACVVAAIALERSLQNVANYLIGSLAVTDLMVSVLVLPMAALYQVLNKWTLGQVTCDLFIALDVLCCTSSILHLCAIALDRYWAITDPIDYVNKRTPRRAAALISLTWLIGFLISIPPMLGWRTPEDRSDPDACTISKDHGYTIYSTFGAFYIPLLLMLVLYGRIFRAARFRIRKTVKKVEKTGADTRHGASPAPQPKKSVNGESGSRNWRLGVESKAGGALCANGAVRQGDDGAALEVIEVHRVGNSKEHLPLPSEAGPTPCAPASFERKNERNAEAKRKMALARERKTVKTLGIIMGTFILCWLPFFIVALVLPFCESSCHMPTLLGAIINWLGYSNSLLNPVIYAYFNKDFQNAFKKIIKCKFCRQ

[4] = target: 5-hydroxytryptamine receptor 2A (Homo sapiens, UniProt P28223); experiment: Displacement of [3H]-ketanserin from recombinant human 5HT2A receptor expressed in CHOK1 cells measured after 1 hr by microbeta counting method
5-hydroxytryptamine receptor 2A, sequence (P28223 whole entry): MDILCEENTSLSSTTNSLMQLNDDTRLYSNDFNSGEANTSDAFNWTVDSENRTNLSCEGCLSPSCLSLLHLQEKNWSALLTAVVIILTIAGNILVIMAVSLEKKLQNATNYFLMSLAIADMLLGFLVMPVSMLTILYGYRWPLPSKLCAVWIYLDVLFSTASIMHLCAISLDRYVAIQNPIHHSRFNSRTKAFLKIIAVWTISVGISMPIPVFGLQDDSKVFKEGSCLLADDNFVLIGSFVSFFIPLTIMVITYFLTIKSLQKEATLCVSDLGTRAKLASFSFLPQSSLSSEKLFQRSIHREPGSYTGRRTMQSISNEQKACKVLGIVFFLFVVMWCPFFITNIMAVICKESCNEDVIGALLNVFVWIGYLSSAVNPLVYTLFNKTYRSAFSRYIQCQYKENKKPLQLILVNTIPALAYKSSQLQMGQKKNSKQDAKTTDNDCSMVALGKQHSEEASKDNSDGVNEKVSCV

5-hydroxytryptamine receptor 7, sequence (P34969 whole entry): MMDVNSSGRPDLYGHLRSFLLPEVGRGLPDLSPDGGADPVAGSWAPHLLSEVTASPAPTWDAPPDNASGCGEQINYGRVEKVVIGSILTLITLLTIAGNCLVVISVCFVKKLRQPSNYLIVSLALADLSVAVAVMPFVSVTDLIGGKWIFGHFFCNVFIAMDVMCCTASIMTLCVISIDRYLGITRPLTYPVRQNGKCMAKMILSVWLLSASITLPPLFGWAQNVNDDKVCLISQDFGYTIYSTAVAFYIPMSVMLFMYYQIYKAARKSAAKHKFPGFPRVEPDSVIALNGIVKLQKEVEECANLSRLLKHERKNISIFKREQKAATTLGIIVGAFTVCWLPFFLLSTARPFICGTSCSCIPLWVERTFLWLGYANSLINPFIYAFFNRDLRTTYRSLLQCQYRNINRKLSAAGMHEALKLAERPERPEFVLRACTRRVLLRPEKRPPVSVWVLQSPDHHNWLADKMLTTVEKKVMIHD
D(2) dopamine receptor, sequence (P14416 whole entry): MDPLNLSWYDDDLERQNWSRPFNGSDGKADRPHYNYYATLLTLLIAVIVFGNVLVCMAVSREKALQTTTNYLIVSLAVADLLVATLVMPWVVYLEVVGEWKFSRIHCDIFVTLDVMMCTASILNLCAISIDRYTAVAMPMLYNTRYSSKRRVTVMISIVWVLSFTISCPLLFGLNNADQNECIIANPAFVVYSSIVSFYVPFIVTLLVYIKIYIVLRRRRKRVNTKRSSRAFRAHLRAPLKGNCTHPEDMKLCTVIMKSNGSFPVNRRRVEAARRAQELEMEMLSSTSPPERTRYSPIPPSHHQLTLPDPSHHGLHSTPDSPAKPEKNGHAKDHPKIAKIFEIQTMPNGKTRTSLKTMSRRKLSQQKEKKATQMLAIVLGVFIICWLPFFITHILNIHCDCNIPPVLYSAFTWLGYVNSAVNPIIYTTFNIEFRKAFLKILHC
5-hydroxytryptamine receptor 6, sequence (P50406 whole entry): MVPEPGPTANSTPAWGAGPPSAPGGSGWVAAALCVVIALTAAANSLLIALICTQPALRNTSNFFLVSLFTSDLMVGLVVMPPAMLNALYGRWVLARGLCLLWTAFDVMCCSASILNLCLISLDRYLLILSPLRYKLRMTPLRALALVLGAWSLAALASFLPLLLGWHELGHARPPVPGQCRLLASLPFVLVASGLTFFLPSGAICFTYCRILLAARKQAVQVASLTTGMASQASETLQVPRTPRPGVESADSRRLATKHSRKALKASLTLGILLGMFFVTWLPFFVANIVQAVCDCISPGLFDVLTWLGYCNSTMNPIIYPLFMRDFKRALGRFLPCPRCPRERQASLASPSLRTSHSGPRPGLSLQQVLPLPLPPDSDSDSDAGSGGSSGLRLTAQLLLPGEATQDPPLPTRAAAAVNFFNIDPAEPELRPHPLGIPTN

Row | Compound | Ki [1] | Ki (D(2) dopamine receptor) | Ki [2] | Ki [3] | Ki [4]
1 | O=C1c2cccc3cccc(c23)N1CCCCCCN1CCN(c2cccc3cccnc23)CC1 | 119 nM | 82 nM | 999 nM | 22 nM | 222 nM
2 | COc1ccccc1N1CCN(CCCCCCN2C(=O)c3cccc4cccc(c34)C2=O)CC1 | 266 nM | 10 nM | 671 nM | 20 nM | 337 nM
3 | O=C1c2cccc3cccc(c23)N1CCCCCCN1CCN(c2ccccn2)CC1 | 184 nM | 867 nM | 1460 nM | 32 nM | 892 nM
4 | COc1ccccc1N1CCN(CCCCCCn2c(=O)n3c4c(cccc42)CCC3)CC1 | 291 nM | 2 nM | 3270 nM | 19 nM | 456 nM
5 | COc1ccc(N2CCN(CCCCCCN3C(=O)c4cccc5cccc(c45)C3=O)CC2)cc1 | 116000 nM | 40000 nM | 5760 nM | 3570 nM | 60100 nM
6 | O=C1c2cccc3cccc(c23)N1CCCCCCN1CCN(c2ncccn2)CC1 | 475 nM | 188 nM | 5250 nM | 94 nM | 43 nM
7 | O=C1c2cccc3cccc(c23)C(=O)N1CCCCCCN1CCN(c2ccccn2)CC1 | 1200 nM | 1300 nM | 1970 nM | 172 nM | 563 nM
8 | CCOc1ccccc1N1CCN(CCCCCCN2c3cccc4cccc(c34)S2(=O)=O)CC1 | 34 nM | 30 nM | 476 nM | 48 nM | 578 nM
9 | O=[N+]([O-])c1ccccc1N1CCN(CCCCCCN2c3cccc4cccc(c34)S2(=O)=O)CC1 | 822 nM | 264 nM | 494 nM | 482 nM | 533 nM
10 | CCOc1ccccc1N1CCN(CCCCCCN2C(=O)c3cccc4cccc2c34)CC1 | 84 nM | 11 nM | 1920 nM | 22 nM | 717 nM
11 | O=S1(=O)c2cccc3cccc(c23)N1CCCCCCN1CCN(c2ccccn2)CC1 | 344 nM | 118 nM | 182 nM | 35 nM | 443 nM
12 | O=C1c2cccc3cccc(c23)C(=O)N1CCCCCCN1CCN(c2ccccc2[N+](=O)[O-])CC1 | 710 nM | 141 nM | 1410 nM | 373 nM | 1920 nM
13 | COc1cccc(N2CCN(CCCCCCN3C(=O)c4cccc5cccc(c45)C3=O)CC2)c1 | 371 nM | 271 nM | 347 nM | 47 nM | 334 nM
14 | CCOc1ccccc1N1CCN(CCCCCCN2C(=O)c3cccc4cccc(c34)C2=O)CC1 | 73 nM | 27 nM | 246 nM | 28 nM | 461 nM
15 | O=C1c2cccc3cccc(c23)N1CCCCCCN1CCN(c2ccccc2[N+](=O)[O-])CC1 | 696 nM | 431 nM | 952 nM | 9470 nM | 3980 nM
16 | COc1ccc(N2CCN(CCCCCCN3C(=O)c4cccc5cccc3c45)CC2)cc1 | 3740 nM | 180 nM | 3670 nM | 291 nM | 1930 nM
17 | COc1cccc(N2CCN(CCCCCCN3C(=O)c4cccc5cccc3c45)CC2)c1 | 366 nM | 114 nM | 1700 nM | 47 nM | 652 nM
